Reference: patent US10336734B2, “Inhibitors of ACK1/TNK2 tyrosine kinase” (H. LEE MOFFITT CANCER CENTER AND RESEARCH INSTITUTE, INC., priority 2015, dated 2019)
Structures can show the parent of a compound that is named as a salt.

Tests used:
[1] = tested on: histone H4 Y88-phosphorylation; experiment: Immunoblot of H4 Y88-phosphorylation in ligand-treated PC cells; assay type: cell-based; conditions: serum and androgen starved PC cells, ligand activated; 5 μM (DHT 10 nM)
Method: FIG. 2A through 2C. ACK1 inhibitor (R)-9bMS suppresses epigenetic modification of histone H4 at tyrosine 88.
To assess endogenous H4-phosphorylation, serum and androgen starved PC cells were treated with ligands to activate ACK1. It led to robust H4 Y88-phosphorylation, suppressed upon (R)-9bMS treatment (FIG. 2A). […] Moreover, H4 Y88-phosphorylation was also detected in human CRPCs using mass spectrometry, which was validated by immunoblotting (FIG. 3A-3C).

[2] = tested on: LNCaP cells expressing constitutively activated ACK1; conditions: mouse xenograft model; cited from earlier work
ACK1 [3] = biological target: T1, ACK1 (Homo sapiens (Human), UniProt Q07912); experiment: ACK1 ELISA; assay type: biochemical; conditions: read-out: ACK1 ELISA % inhibition at 10 μM
[4] = tested on: castration and radioresistant prostate xenograft tumor; conditions: in vivo; cited from earlier work
c-Src = c-Src (Homo sapiens (Human), UniProt P12931); experiment: c-Src IC50 (RB); assay type: biochemical
ACK1 [5] = biological target: T1, ACK1; experiment: ACK1 IC50 (RB); assay type: biochemical
JAK2 = JAK2 (Homo sapiens (Human), UniProt O60674); experiment: JAK2 IC50 (RB); assay type: biochemical
ALK = ALK (Homo sapiens (Human), UniProt Q9UM73); experiment: ALK IC50 (RB); assay type: biochemical
[6] = tested on: non-small cell lung cancer (NSCLC) cell lines; conditions: panel of NSCLC cell lines; cited from earlier work

Chain of c-Src (P12931 whole entry, looked up, species assumed): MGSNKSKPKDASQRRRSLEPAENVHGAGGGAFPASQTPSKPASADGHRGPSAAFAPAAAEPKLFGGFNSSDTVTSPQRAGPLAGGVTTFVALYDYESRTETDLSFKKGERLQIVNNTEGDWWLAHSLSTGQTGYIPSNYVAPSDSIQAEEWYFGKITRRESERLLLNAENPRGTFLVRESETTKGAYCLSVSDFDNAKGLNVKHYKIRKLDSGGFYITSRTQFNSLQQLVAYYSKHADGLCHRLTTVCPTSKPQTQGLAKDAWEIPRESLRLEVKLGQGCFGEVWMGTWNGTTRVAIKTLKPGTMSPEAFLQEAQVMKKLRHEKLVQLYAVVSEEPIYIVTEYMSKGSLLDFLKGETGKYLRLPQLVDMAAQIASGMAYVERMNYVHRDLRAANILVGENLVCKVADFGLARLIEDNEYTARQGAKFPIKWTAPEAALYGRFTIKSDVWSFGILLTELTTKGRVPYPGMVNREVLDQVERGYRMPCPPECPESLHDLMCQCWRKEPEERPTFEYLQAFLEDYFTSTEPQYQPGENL
T1 sequence (Q07912 whole entry): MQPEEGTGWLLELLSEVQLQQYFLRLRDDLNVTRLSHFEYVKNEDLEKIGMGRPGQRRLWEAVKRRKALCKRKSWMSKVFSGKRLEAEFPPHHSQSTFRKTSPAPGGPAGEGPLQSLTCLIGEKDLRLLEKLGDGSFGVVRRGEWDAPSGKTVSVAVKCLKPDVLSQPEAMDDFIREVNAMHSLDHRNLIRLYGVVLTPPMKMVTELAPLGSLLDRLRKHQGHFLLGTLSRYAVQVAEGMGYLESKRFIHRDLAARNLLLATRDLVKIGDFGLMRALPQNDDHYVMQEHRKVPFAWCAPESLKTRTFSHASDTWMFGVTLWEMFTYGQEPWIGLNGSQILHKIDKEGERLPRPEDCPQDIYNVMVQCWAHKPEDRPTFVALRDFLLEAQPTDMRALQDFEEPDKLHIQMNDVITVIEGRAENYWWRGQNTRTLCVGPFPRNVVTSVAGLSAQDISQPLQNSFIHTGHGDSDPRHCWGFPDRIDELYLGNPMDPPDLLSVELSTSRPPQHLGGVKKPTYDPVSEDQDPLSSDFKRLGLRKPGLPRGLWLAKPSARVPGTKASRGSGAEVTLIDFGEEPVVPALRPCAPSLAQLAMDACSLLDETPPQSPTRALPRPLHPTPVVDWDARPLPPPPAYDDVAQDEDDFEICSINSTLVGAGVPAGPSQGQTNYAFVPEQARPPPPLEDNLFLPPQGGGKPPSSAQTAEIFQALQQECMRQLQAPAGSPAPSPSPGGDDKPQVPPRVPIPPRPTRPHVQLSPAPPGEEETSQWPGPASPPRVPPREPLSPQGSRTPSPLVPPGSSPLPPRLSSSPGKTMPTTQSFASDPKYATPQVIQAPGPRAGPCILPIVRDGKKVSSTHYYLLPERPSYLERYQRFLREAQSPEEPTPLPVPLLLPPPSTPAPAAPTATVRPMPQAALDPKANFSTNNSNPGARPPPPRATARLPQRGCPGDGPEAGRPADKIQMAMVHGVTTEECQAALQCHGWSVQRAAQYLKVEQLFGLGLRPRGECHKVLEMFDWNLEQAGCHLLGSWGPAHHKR
Chain of JAK2 (O60674 whole entry, species assumed): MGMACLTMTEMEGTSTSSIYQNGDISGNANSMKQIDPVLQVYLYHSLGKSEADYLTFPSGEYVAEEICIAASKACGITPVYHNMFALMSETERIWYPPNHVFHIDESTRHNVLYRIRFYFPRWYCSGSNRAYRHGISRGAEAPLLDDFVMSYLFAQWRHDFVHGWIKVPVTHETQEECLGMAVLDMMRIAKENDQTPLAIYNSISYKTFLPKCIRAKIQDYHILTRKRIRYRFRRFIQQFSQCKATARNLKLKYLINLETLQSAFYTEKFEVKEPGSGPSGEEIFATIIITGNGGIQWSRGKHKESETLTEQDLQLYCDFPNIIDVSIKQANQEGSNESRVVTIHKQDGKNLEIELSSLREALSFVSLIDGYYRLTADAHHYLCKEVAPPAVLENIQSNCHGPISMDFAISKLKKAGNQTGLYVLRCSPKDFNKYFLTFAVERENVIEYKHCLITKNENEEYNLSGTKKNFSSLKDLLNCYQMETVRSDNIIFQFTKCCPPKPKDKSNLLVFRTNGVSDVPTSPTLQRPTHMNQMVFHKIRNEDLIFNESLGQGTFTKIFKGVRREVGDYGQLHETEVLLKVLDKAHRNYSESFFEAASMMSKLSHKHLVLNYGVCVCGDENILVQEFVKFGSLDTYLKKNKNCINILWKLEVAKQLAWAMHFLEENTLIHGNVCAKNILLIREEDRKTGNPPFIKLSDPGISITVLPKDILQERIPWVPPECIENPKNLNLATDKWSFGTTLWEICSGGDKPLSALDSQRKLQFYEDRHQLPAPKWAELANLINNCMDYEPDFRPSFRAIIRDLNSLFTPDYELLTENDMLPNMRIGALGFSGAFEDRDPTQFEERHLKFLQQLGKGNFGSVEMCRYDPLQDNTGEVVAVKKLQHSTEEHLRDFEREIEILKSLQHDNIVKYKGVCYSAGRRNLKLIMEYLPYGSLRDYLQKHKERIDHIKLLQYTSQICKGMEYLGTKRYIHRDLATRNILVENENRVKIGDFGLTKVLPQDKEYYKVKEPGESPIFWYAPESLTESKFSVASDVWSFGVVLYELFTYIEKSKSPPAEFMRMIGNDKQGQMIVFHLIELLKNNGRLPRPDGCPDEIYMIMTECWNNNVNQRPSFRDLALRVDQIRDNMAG
Chain of ALK (Q9UM73 19-1620, species assumed): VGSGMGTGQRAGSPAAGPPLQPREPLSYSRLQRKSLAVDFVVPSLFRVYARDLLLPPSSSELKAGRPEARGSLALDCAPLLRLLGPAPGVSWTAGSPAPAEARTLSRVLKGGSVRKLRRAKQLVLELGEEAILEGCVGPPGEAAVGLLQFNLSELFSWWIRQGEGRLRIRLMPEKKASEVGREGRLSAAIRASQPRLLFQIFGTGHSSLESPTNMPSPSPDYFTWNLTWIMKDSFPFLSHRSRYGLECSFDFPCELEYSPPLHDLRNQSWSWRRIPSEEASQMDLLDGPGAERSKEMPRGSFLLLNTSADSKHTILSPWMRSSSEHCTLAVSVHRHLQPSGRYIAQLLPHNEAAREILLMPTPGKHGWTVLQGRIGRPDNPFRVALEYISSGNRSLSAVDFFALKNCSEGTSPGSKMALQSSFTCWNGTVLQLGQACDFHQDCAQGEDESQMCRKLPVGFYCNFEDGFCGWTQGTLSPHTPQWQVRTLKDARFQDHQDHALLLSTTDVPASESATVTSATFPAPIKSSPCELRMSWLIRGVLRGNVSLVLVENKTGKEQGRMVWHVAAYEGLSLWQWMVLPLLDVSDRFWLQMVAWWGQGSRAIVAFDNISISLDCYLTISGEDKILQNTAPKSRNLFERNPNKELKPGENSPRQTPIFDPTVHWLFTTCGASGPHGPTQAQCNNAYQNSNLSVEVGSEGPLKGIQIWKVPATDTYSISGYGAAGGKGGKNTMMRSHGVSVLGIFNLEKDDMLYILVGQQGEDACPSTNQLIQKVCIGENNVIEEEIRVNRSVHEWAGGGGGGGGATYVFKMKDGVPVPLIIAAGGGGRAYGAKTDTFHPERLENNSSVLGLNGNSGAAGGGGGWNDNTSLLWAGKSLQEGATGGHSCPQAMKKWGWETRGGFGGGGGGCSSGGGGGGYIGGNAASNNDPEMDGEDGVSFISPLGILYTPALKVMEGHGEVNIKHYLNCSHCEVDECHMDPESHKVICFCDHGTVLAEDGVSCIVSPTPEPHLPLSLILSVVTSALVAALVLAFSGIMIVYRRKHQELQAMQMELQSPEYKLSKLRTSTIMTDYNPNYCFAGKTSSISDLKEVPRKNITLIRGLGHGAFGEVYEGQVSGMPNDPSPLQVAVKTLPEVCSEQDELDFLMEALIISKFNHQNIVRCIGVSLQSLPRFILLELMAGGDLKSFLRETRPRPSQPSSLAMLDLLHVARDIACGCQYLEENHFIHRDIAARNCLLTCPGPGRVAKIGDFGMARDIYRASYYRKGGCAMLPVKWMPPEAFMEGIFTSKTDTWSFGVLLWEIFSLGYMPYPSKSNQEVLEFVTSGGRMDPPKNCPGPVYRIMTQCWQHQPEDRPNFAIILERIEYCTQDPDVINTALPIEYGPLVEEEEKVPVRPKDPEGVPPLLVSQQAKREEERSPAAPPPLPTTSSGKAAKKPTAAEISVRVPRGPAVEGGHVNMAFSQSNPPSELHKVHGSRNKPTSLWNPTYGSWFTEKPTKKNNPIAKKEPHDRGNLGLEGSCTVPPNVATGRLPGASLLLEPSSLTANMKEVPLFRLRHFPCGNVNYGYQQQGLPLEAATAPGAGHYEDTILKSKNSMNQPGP

Row | Compound | inhibition at 10 µM (ACK1 [3]) [%] | other results
1 | C[C@]12CCC(=O)C[C@@H]1CC[C@@H]1[C@@H]2CC[C@]2(C)[C@@H](O)CC[C@@H]12 [DHT] | – | H4 Y88-phosphorylation [1]: remained unaffected
2 | Cc1nc(Nc2ncc(C(=O)Nc3c(C)cccc3Cl)s2)cc(N2CCN(CCO)CC2)n1 [Dasatinib] | – | Growth of LNCaP cells expressing constitutively activated ACK1, xenograft [2]: significantly reduced
3 | CN1CCN(c2ccc(Nc3ncc(Cl)c(NCc4ccco4)n3)cc2)CC1 [Example 1, 5-Chloro-N4-(furan-2-ylmethyl)-N2-(4-(4-methylpiperazin-1-yl)phenyl)pyrimidine-2,4-diamine] | 96 | –
4 | c1ccc(-c2oc3ncnc(NC[C@@H]4CCCO4)c3c2-c2ccccc2)cc1 [Example 1b] | – | Castration and radioresistant prostate xenograft tumor growth [4]: inhibits
5 | CN1CCN(c2ccc(Nc3ncc(Cl)c(NCC4CCCN4)n3)cc2)CC1 (stereo not drawn) [Example 2, 5-Chloro-N2-(4-(4-methylpiperazin-1-yl)phenyl)-N4-(pyrrolidin-2-ylmethyl)pyrimidine-2,4-diamine tri-TFA salt] | 18.3 | –
6 | Cc1ccc(CNc2nc(Nc3ccc(N4CCN(C)CC4)cc3)ncc2Cl)o1 [Example 3, 5-Chloro-N4-((5-methylfuran-2-yl)methyl)-N2-(4-(4-methylpiperazin-1-yl)phenyl)-pyrimidine-2,4-diamine] | 90.9 | –
7 | CN1CCN(c2ccc(Nc3ncc(Cl)c(NCC4CCCCO4)n3)cc2)CC1 (stereo not drawn) [Example 4, 5-Chloro-N2-(4-(4-methylpiperazin-1-yl)phenyl)-N4-((tetrahydro-2H-pyran-2-yl)methyl)pyrimidine-2,4-diamine hydrochloride] | 97 | –
8 | CN1CCN(c2ccc(Nc3ncc(Cl)c(NCC4CCCC4)n3)cc2)CC1 [Example 5, 5-Chloro-N4-(cyclopentylmethyl)-N2-(4-(4-methylpiperazin-1-yl)phenyl)pyrimidine-2,4-diamine] | 97 | –
9 | CN1CCN(c2ccc(Nc3ncc(Cl)c(NCC4CCCN4C)n3)cc2)CC1 (stereo not drawn) [Example 6, 5-Chloro-N2-(4-(4-methylpiperazin-1-yl)phenyl)-N4-((1-methylpyrrolidin-2-yl)methyl)pyrimidine-2,4-diamine tri TFA salt] | 35.6 | –
10 | CN1CCN(c2ccc(Nc3ncc(Cl)c(NCCc4ccccc4)n3)cc2)CC1 [Example 7, 5-chloro-N2-(4-(4-methylpiperazin-1-yl)phenyl)-N4-phenethylpyrimidine-2,4-diamine] | 91.9 | –
11 | CN1CCN(c2ccc(Nc3ncc(Cl)c(NCCCc4ccccc4)n3)cc2)CC1 [Example 8, 5-Chloro-N2-(4-(4-methylpiperazin-1-yl)phenyl)-N4-(3-phenylpropyl)pyrimidine-2,4-diamine] | 85.8 | –
12 | CN1CCN(c2ccc(Nc3ncc(Cl)c(NCCc4ccc(Cl)cc4Cl)n3)cc2)CC1 [Example 9, 5-Chloro-N4-(2,4-dichlorophenethyl)-N2-(4-(4-methylpiperazin-1-yl)phenyl)pyrimidine-2,4-diamine] | 36.5 | –
13 | CN1CCN(c2ccc(Nc3ncc(Cl)c(NCCc4c(Cl)cccc4Cl)n3)cc2)CC1 [Example 10, 5-Chloro-N4-(2,6-dichlorophenethyl)-N2-(4-(4-methylpiperazin-1-yl)phenyl)pyrimidine-2,4-diamine] | 97 | –
14 | CN1CCN(c2ccc(Nc3ncc(Cl)c(NCCc4ccccc4Cl)n3)cc2)CC1 [Example 11, 5-Chloro-N4-(2-chlorophenethyl)-N2-(4-(4-methylpiperazin-1-yl)phenyl)pyrimidine-2,4-diamine] | 91 | –
15 | CN1CCN(c2ccc(Nc3ncc(Cl)c(NCCc4c(F)cccc4Cl)n3)cc2)CC1 [Example 12, 5-Chloro-N4-(2-chloro-6-fluorophenethyl)-N2-(4-(4-methylpiperazin-1-yl)phenyl)pyrimidine-2,4-diamine] | 93 | –
16 | CN1CCN(c2ccc(Nc3ncc(Cl)c(NCCc4ccccc4F)n3)cc2)CC1 [Example 13, 5-Chloro-N4-(2-fluorophenethyl)-N2-(4-(4-methylpiperazin-1-yl)phenyl)pyrimidine-2,4-diamine] | 91 | –
17 | COc1ccccc1CCNc1nc(Nc2ccc(N3CCN(C)CC3)cc2)ncc1Cl [Example 14, 5-Chloro-N4-(2-methoxyphenethyl)-N2-(4-(4-methylpiperazin-1-yl)phenyl)pyrimidine-2,4-diamine] | 98 | –
18 | CN1CCN(c2ccc(Nc3ncc(Cl)c(NCCc4ccccn4)n3)cc2)CC1 [Example 15, 5-Chloro-N2-(4-(4-methylpiperazin-1-yl)phenyl)-N4-(2-(pyridin-2-yl)ethyl)pyrimidine-2,4-diamine] | 91.9 | –
19 | Cc1ccccc1CCNc1nc(Nc2ccc(N3CCN(C)CC3)cc2)ncc1Cl [Example 16, 5-Chloro-N4-(2-methylphenethyl)-N2-(4-(4-methylpiperazin-1-yl)phenyl)pyrimidine-2,4-diamine] | 91 | –
20 | COc1cc(N2CCN(C)CC2)ccc1Nc1ncc(Cl)c(NCCc2c(F)cccc2Cl)n1 [Example 20, 5-Chloro-N^4-(2-chloro-6-fluorophenethyl)-N^2-[2-methoxy-4-(4-methylpiperazin-1-yl)phenyl]pyrimidine-2,4-diamine] | – | IC50 (c-Src): 11500 nM; IC50 (ACK1 [5]): 27 nM; IC50 (JAK2): 1720 nM; IC50 (ALK): 7 nM
21 | COc1ccccc1CCNc1nc(Nc2ccc(N3CCN(C)CC3)cc2OC)ncc1Cl [Example 21, 5-Chloro-N^2-[2-methoxy-4-(4-methylpiperazin-1-yl)phenyl]-N^4-(2-methoxyphenethyl)pyrimidine-2,4-diamine] | – | IC50 (c-Src): 8250 nM; IC50 (ACK1 [5]): 24 nM; IC50 (JAK2): 860 nM; IC50 (ALK): 2 nM
22 | CN1CCN(C(=O)Cc2ccc(Nc3ncc(Cl)c(NC[C@H]4CCCO4)n3)cc2)CC1 [Example 24, (R)-2-(4-((5-chloro-4-(((tetrahydrofuran-2-yl)methyl)amino)pyrimidin-2-yl)amino)phenyl)-1-(4-methylpiperazin-1-yl)ethan-1-one] | 86.8 | –
23 | CN1CCC(NC(=O)c2ccc(Nc3ncc(Cl)c(NC[C@H]4CCCO4)n3)cc2F)CC1 [Example 25, (R)-4-((5-chloro-4-(((tetrahydrofuran-2-yl)methyl)amino)pyrimidin-2-yl)amino)-2-fluoro-N-(1-methylpiperidin-4-yl)benzamide] | 86.9 | –
24 | COc1cc(N2CCN(C)CC2)ccc1Nc1ncc(Cl)c(NC[C@H]2CCCO2)n1 [Example 26, (R)-5-Chloro-N^2-[2-methoxy-4-(4-methylpiperazin-1-yl)phenyl]-N^4-[(tetrahydrofuran-2-yl)methyl]pyrimidine-2,4-diamine] | – | IC50 (c-Src): 16800 nM; IC50 (ACK1 [5]): 39 nM; IC50 (JAK2): 1080 nM; IC50 (ALK): 34 nM
25 | COc1cc(Nc2c(C#N)cnc3cc(OCCCN4CCN(C)CC4)c(OC)cc23)c(Cl)cc1Cl [bosutinib] | – | cell migration and invasion [6]: inhibit cell migration and invasion; viability [6]: not viability
26 | CNC(=O)c1ccc(N2C(=S)N(c3ccc(C#N)c(C(F)(F)F)c3)C(=O)C2(C)C)cc1F [enzalutamide] | – | H4 Y88-phosphorylation [1]: remained unaffected
